In publication PMC11912270, “Synthesis and SAR Studies of Acyl-Thiourea Platinum(II) Complexes Yield Analogs with Dual-Stage Antiplasmodium Activity” (ACS Medicinal Chemistry Letters, 2025):

Experiments:
[1] = Single-point microsomal metabolic stability, human; format: in vitro ADME; conditions: human liver microsomes, 1 µM
Procedure: 1.8. Microsomal metabolic stability studies […]
rat IGS, Xenotech), and mouse (male mouse CD1, Xenotech) liver microsomes (0.4 mg/ml) for 30 min at 37 °C. Reactions were quenched by adding ice-cold acetonitrile containing […]
disappearance of the parent compound. Half-life, clearance, and hepatic excretion ratios were determined using standard equations.6,7 Propranolol. […]

[2] = tested on: ABS parasites; assay: Dual point activity against ABS parasites; format: cell-based, Plasmodium falciparum; conditions: single biological repeat
Source text: Table S2: Dual point activity of platinum(II) complexes against ABS parasites, early- and late-
stage gametocytes. Values are averaged from technical triplicates performed for a single

[3] = tested on: red blood cells (RBCs); assay: Hemolysis assay; format: cell-based; conditions: up to 10 μM, 1 and 72 h
Procedure: The hemolysis assay was conducted in a 96-well round-bottom plate. A 10 mM stock of the test compound in DMSO was diluted to 10 μM using complete growth medium. Complete growth medium (100 μL) was added to all wells in columns 1 and columns 3–12. The test compound in a complete growth medium (200 μL) were added in duplicate to well 2 and serially diluted two-fold down the plate (from wells 2–11). Triton X-100 (4%, v/v) was used as
RBCs in complete growth medium
(2% hematocrit) were lysed via three freeze/thaw cycles (-80 °C/37 °C) and were added to all wells in column 1 (100 µL). Intact RBCs in complete growth medium were added to wells 2– 12 and the plates were incubated at 37 °C for either 1 hour or 72 hours. After removing the plates from the incubator, each well was mixed thoroughly with a multichannel pipette and spun in a centrifuge at 750 rcf for 5 minutes. The supernatant was transferred to a 96-well flat-bottom plate and the absorbance of each well read on a microplate reader (Thermo Scientific
Percentage hemolysis was calculated using Equation 2 and the graphs generated using GraphPad Prism 10.
% ℎ𝑒𝑚𝑜𝑙𝑦𝑠𝑖𝑠 = (𝐴𝑠 ― 𝐴0) × 100 𝑬𝒒. 𝟐

[4] = tested on: Chinese hamster ovary (CHO) cell line; assay: MTT cytotoxicity assay; format: cell-based; conditions: cytotoxicity, MTT, 48 h; N, n = 1, 3; read-out: CHO IC50
Procedure: 1.6.In vitro cytotoxicity assay
A 3-(4,5-dimethylthiazol-2-yl)-2,5-diphenyltetrazoliumbromide (MTT) assay was used to screen the metal complexes against the mammalian Chinese hamster ovarian (CHO) cell line.
A stock solution of each compound (2 mg/mL) in DMSO was prepared and kept at -20 °C until needed. Emetine was used as a reference drug. A starting concentration of 100 µg/mL was used, and serially diluted ten-fold using a complete medium to give the lowest concentration of 0.001 µg/mL (6 dilutions). The plates containing the CHO cells under drug pressure were […]
Plates containing the drug and cell suspension were developed by adding 25 μL of sterile MTT (Thermo Fisher Scientific) (25 µL) to each well, followed by 4 h […]
of incubation at room temperature in the dark. The plates were then centrifuged, and the supernatant was removed via aspiration. Sample absorbance was read at a wavelength of 540 […]
analysis via GraphPad Prism v.4.0 software. The IC50 values were determined for each compound were determined from the dose-response curves. […]

[5] = tested on: early-stage gametocytes (NF54-PfS16-GFP-Luc); assay: Luciferase reporter assay, early-stage gametocytes; format: cell-based, Plasmodium falciparum; conditions: single biological repeat
Procedure: All the complexes were tested for their early- and late-stage gametocyte activity in a dual-point assay (1 μM and 5 μM). […]
1.5.In vitro activity against gametocyte stages
PfNF54 gametocytes were prepared and isolated according to the method reported by Reader […]
The in vitro gametocyte activity of the synthesized complexes was determined using a luciferase reporter line-based assay.
NF54-PfS16-GFP-Luc parasites were used for the stage-specific assessment of gametocytocidal activity. Early-stage gametocyte (stage I-III) experiments were performed on day 5 (representing >90% of early-stage and late-stage gametocyte (stages IV/V) experiments were performed on day 10. In each experiment, assays were set up with the use of 2-3% […]
Luciferase activity was determined in 30 µL parasite lysates by adding luciferin substrate (30 µL) (Promega Luciferase Assay System) at room temperature. […]

Nc1cc[n+]2c(c1)-c1cc(N)cc[n+]1[Pt-2]21[O+]=C(c2ccccc2)N=C(N(CCO)CCO)[S]1.[Cl-] [C6]
Microsomal metabolic stability (% remaining after 30 min) Human [1]: 43 % remaining
ABS (% inhibition) 1 µM ([2]; 1 µM): 100.7 % inhibition
ABS (% inhibition) 5 µM ([2]; 5 µM): 100.2 % inhibition
in vitro hemolytic activity [3]: do not induce hemolysis
IC50 [4]: > 50 µM
EG (% inhibition) 1 µM ([5]; 1 µM): 13.7 % inhibition
EG (% inhibition) 5 µM ([5]; 5 µM): 20.1 % inhibition
